Results taken from ChEMBL document CHEMBL3352031, “Discovery of diamine-linked 17-aroylamido-17-demethoxygeldanamycins as potent Hsp90 inhibitors” (Eur J Med Chem, 2014).
The source made the active and inactive calls. No cut-off for these calls is given here.

Columns and labels:
A549 = assay: cells; conditions: Homo sapiens, A549, 72 h
Description: Cytotoxicity against human A549 cells after 72 hrs by MTT assay

[1] = Safety index, ratio of IC50 for 17-AAG to IC50 for test compound against human HL7702 cells after 72 hrs by MTT assay; assay type: cell-based, L02; conditions: read-out: Ratio IC50
cells [2] = conditions: Homo sapiens, BGC-823, 72 h
Description: Cytotoxicity against human BGC823 cells after 72 hrs by MTT assay

[3] = target: Heat shock protein HSP 90-alpha (Homo sapiens, UniProt P07900); assay: Inhibition of GA-FITC binding to human recombinant Hsp90alpha incubated for 5 hrs by fluorescence polarization assay
[4] = Safety index, ratio of IC50 for GA to IC50 for test compound against HUVEC cells after 72 hrs by MTT assay; assay type: cell-based; conditions: human, read-out: Ratio IC50
MDA-MB-231 [5] = assay: cells; conditions: Homo sapiens, MDA-MB-231, 72 h
Description: Cytotoxicity against human MDA-MB-231 cells after 72 hrs by MTT assay

[6] = target: T1, Heat shock protein HSP90 (Homo sapiens) (UniProt P07900+P08238); assay: Inhibition Hsp90 in human MDA-MB 231 cells assessed as reduction in HER2 protein level at 0.5 and 5 uM incubated for 24 hrs by Western blot method; assay type: cell-based
MDA-MB-231 [7] = assay: Antitumor activity against human MDA-MB-231 cells xenografted in athymic nude mouse assessed as tumor growth inhibition at 10 mg/kg, iv dosed every 3 day for 15 consecutive days; assay type: functional; conditions: MDA-MB-231, 72 h, read-out: TGI
A-431 = assay: cells; conditions: Homo sapiens, A-431, 72 h
Description: Cytotoxicity against human A431 cells after 72 hrs by MTT assay

[8] = target: T1, Heat shock protein HSP90 (Homo sapiens); assay: Inhibition Hsp90 in human MDA-MB 231 cells assessed as reduction in CDK4 protein level at 0.5 and 5 uM incubated for 24 hrs by Western blot method; assay type: cell-based
[9] = target: T1, Heat shock protein HSP90 (Homo sapiens); assay: Inhibition Hsp90 in human MDA-MB 231 cells assessed as reduction in EGFR protein level at 0.5 and 5 uM incubated for 24 hrs by Western blot method; assay type: cell-based
MDA-MB-231 [10] = assay: Antitumor activity against human MDA-MB-231 cells xenografted in athymic nude mouse assessed as reduction in tumor weight at 10 mg/kg, iv dosed every 3 day for 15 consecutive days; assay type: functional
Mus musculus [11] = assay: Hepatotoxicity in Kunming mouse assessed as serum alanine aminotransferase level at 10 mg/kg, iv (reference value: 60.7 +/- 6.9U/L); assay type: toxicity, organism-based; parameters: dose 10 mg/kg, route intravenous; conditions: in vivo
HeLa = assay: cells; conditions: Homo sapiens, 72 h
Description: Cytotoxicity against human HeLa cells after 72 hrs by MTT assay

HepG2 = assay: cells; conditions: Homo sapiens, HepG2, 72 h
Description: Cytotoxicity against human HepG2 cells after 72 hrs by MTT assay

Mus musculus [12] = assay: Hepatotoxicity in Kunming mouse assessed as serum aspartate aminotransferase level at 10 mg/kg, iv (reference value: 197.2 +/- 11.2 U/L); assay type: toxicity, organism-based; parameters: dose 10 mg/kg, route intravenous; conditions: in vivo
SW480 = assay: cells; conditions: Homo sapiens, SW480, 72 h
Description: Cytotoxicity against human SW480 cells after 72 hrs by MTT assay

[13] = Safety index, ratio of IC50 for 17-AAG to IC50 for test compound against HUVEC cells after 72 hrs by MTT assay; assay type: ADME, cell-based; conditions: human, read-out: Ratio IC50
[14] = target: T1, Heat shock protein HSP90 (Homo sapiens); assay: Inhibition Hsp90 in human MDA-MB 231 cells assessed as reduction in AKT protein level at 0.5 and 5 uM incubated for 24 hrs by Western blot method; assay type: cell-based
[15] = Safety index, ratio of IC50 for GA to IC50 for test compound against human HL7702 cells after 72 hrs by MTT assay; assay type: ADME, cell-based, L02; conditions: read-out: Ratio IC50
HUVEC = assay: cells; conditions: Homo sapiens, 72 h
Description: Cytotoxicity against HUVEC cells after 72 hrs by MTT assay

cells [16] = conditions: Homo sapiens, L02, 72 h
Description: Cytotoxicity against human HL7702 cells after 72 hrs by MTT assay

Structure (SMILES): COc1cc(/C=C/C(=O)NCCCCCCNC2=C3C[C@@H](C)C[C@H](OC)[C@H](O)[C@@H](C)/C=C(\C)[C@H](OC(N)=O)[C@@H](OC)/C=C\C=C(/C)C(=O)NC(=CC2=O)C3=O)cc(OC)c1OC
- IC50 (A549): 278 nM
- selectivity ratio at 72 h [1]: 50
- IC50 (cells [2]): 527 nM
- IC50 [3]: 290 nM
- selectivity ratio at 72 h [4]: 68
- IC50 (MDA-MB-231 [5]): 190 nM
- inhibition [6]: Active
- inhibition in vivo at 10 mg/kg (MDA-MB-231 [7]): 81%
- IC50 (A-431): 773 nM
- inhibition [8]: Active
- inhibition [9]: Active
- T/C (MDA-MB-231 [10]): 21%
- Activity (Mus musculus [11]): 40.4 U/L
- IC50 (HeLa): 284 nM
- IC50 (HepG2): 562 nM
- Activity (Mus musculus [12]): 181 U/L
- IC50 (SW480): 796 nM
- selectivity ratio at 72 h [13]: 5
- inhibition [14]: Active
- selectivity ratio at 72 h [15]: 35
- IC50 (HUVEC): 1350 nM
- IC50 (cells [16]): 4950 nM
